Experimental data as given in patent US20260234217A1, “USE OF BMP RECEPTOR ALK1 INHIBITORS IN OSTEOARTHRITIS THERAPIES” (The Regents of the University of California, priority 2023, published 2026).
“Also recorded” adds a separate entry of the source.

Experiments:
[1] = molecular target: ALK3 (Homo sapiens, UniProt P36894); assay: kinase assay (biochemical IC50, literature); conditions: concentration of 200 nM
[2] = system: articular cartilage of DMM mice; assay: DMM model of post-traumatic OA: Safranin-O/Fast Green staining and OARSI scoring of articular cartilage damage; type: in vivo, mouse; conditions: for articular cartilage damage (SOFG staining, OARSI scoring): treatment from the time of DMM surgery, weekly, compared to PBS
Method: FIG. 13. Growth differentiation factor 11 (GDF11, see, e.g., NCBI Reference Sequence: NP_005802.1) competes with BMP9/10 for binding to BMP type II receptors ACVRIIA or ACVRIIB, thereby preventing the association of BMP type I receptor ALK1 with ACVRIIA/B and decreasing BMP signaling. […] We tested this hypothesis by locally injecting GDF11 (50 ng/dose) into the knee joint space at mice with established post-traumatic OA. (A) Experimental Outline (B) Safranin-O/Fast Green (SOFG) Staining of sagittal sections of the knee joint, femur (top) and tibia (bottom) for proteoglycan (cartilage; red) and bone (green) at week 8 after DMM or Sham surgery. Mice were treated with either GDF11, or Phosphate Buffered Saline (PBS) after received surgery (n=5/group). 4-Week DMM mice were sacrificed 4 weeks after surgery and received no treatment (n=6). AC damage indicated by dotted line. (C-D) Osteoarthritis Research Society International (OARSI) scoring of AC damage in the (C) medial tibial plateau and (D) medial femoral condyle in representative sections of each treatment at week 4 or 8 after surgery. All data are shown as mean bar+/−standard deviation *p<0.05. Data analysis performed was one-way ANOVA. Scale 250 uM.
(§1) Mice (C57BL/6J) were purchased from The Jackson Laboratory. All mice were housed on a 12-hour light/dark cycle with unrestricted access to standard mouse food and water. The DMM model of injury induced OA was performed on mice at 12 weeks of age by opening the joint capsule and transecting the medial meniscotibial ligament in the right knee, destabilizing the medial meniscus(48). A sham operation was performed on the left knee of each mouse by observing the medial meniscotibial ligament but not transecting it. Mice were administered carprofen 5 mg/kg (Zoetis; 1041283) subcutaneously 30 minutes prior to surgery, immediately post-surgery, and 24 hours post-surgery to minimize pain.
(§2) Treatments were initiated either 1 day after DMM surgery once a week for 8 weeks, or 1 month after DMM surgery twice a week for 4 weeks. Mice were sacrificed at 20 weeks of age (2 months after surgery). To understand the level of articular cartilage damage 1 month after DMM surgery, a cohort of mice was sacrificed at 16 weeks old (FIG. 4).
Knee joint samples were harvested and fixed in 4% Paraformaldehyde for 3 days, and subsequently decalcified in formic acid (Statlab; 1414-32) for 3 days and embedded in paraffin. Sagittal sections 7 micrometers in thickness were taken and stained using Safranin-O (Sigma-Aldrich; S8884-25G), fast green (Sigma-Aldrich; F7258-25G), and hematoxylin (Fisherbrand; 245-656) using a standard histology protocol. Images were taken with the Olympus BX60 brightfield microscope using a 10× objective lens. Representative sections throughout the medial and lateral portion of side were chosen for histological analysis, resulting in 5 sections being imaged for both portions of the joint.
The 10 total sections per joint chosen for histology received randomized sample numbers and were given to three independent researchers who scored the level of cartilage damage based on OARSI guidelines (84). OARSI scores were analyzed with Prism 9 Software (GraphPad) using two-way ANOVA and Tukey's multiple comparisons test post-hoc. Scoring was performed by at least three experienced investigators blinded to treatment/genotype. Scores were averaged for the medial tibial plateau, medial femoral condyle, lateral tibial plateau, and lateral femoral condyle for each sample.

[3] = system: Collagen-X (COL10); assay: Immunohistochemistry of articular cartilage in DMM mice; type: in vivo, mouse
Method: as §1, §2
(§3) Seven micrometer-thick representative sections were chosen for immunohistochemistry, using a standard protocol (35). Tissue sections were deparaffinized, rehydrated, and washed in sodium borohydride (Sigma-Aldrich; 480886). Sections were then incubated with hyaluronidase (Sigma-Aldrich; H3505) and blocked with 5% serum in 1% PBST. Tissue sections were treated with primary antibodies to mouse ALK1 (R&D; AF770), Phospho-SMAD1/5 (Cell Signaling Technology; 9516), Phospho-SMAD2 (Cell Signaling Technology; 3108), MMP13 (Abcam; ab260040), and COL10 (Abcam; […]) and incubated overnight. Sections were then treated with a dilution of secondary antibody goat anti-rabbit IgG (H+L) Cross-Adsorbed Secondary Antibody, Alexa Flour 488 (Invitrogen; A-11008) or donkey anti-goat IgG (H+L) Cross-Adsorbed Secondary Antibody, Alexa Flour 488 (Invitrogen; A11055) for 4 hours. Finally, sections were incubated with 0.1 ug/mL of DAPI for 10 minutes before being mounted with Fluoro-Gel (Electron Microscopy Sciences; 17985-31). Images were taken with the Nikon Eclipse Ti fluorescent microscope.

[4] = system: Matrix Metalloproteinase-13 (MMP13); assay: as above; type: in vivo, mouse
Method: as §1, §2, §3

[5] = system: pSMAD1/5; assay: as above; type: in vivo, mouse
Method: as §1, §2, §3

[6] = system: pSMAD2/3; assay: as above; type: in vivo, mouse
Method: as §1, §2, §3

[7] = system: OA associated pain in DMM mice; assay: Von Frey pain assessment (50% paw withdrawal threshold) in DMM mice; type: in vivo, mouse
Method: In a functional assessment of BMP-KI and ALK1-Fc, we measured pain and sensitivity in mice following DMM surgery and treatment with BMP-KI and ALK1-Fc using Von Frey analysis. Mice underwent DMM surgery at 3 months of age and were treated with BMP-KI or ALK1Fc once a week for 8 weeks following surgery. Mice underwent Von Frey testing immediately prior to surgery, and each week following surgery. Von Frey testing involved exposure of the injured limb hindfoot plantar surface to a monofilament of a designated caliber (measured in grams). […] The 50% PWT was then calculated mathematically as previously described(54). A higher 50% paw withdrawal threshold indicates less sensitivity in the surgically treated limb. Mice undergoing sham surgery were also tested as a control.
Pain was assessed using the 50% paw withdrawal threshold (PWT) using Von Frey filaments and the up-and-down method as described(86, 87). Each mouse was tested three times by evaluators blinded to treatment group, and the average value was calculated. Whether or not each of the three acquired values is normal is based on the Jarque-Baera test. 4-5 mice were analyzed per treatment condition. Significance was assessed using two-way ANOVA and Tuckey's multiple comparisons test.

[8] = delayed treatment, week 8, vs vehicle-treated mice examined 4 weeks after surgery
[9] = treated 1 month after DMM surgery
[10] = treatment immediately after DMM surgery, week 8, listed as BMP-KI
[11] = delayed administration (1 month after DMM surgery)
[12] = treatment immediately after DMM surgery, week 8

Chain of ALK3 (P36894 24-532, species assumed): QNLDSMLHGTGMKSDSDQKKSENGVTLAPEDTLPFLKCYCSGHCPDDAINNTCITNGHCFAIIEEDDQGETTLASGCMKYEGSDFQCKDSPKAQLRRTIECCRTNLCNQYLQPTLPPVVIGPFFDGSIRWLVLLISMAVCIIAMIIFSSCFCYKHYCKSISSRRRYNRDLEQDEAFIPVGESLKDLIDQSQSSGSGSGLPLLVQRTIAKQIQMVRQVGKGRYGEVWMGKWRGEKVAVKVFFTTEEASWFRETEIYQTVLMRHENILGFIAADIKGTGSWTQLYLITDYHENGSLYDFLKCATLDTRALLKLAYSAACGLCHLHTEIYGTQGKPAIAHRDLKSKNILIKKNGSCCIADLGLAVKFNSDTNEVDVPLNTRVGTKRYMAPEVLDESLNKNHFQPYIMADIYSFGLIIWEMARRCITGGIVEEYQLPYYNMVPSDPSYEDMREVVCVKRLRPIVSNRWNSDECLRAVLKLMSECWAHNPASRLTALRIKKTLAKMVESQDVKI

## COc1cc(-c2cc(-c3ccc(N4CCNCC4)cc3)cnc2C)cc(OC)c1OC [LDN-214117]
[1]
  effect on ALK3 at the injected concentration: < 25 % IC50
[2]; [8]
  articular cartilage damage, femoral surface: less damage
  articular cartilage damage, tibial surface: less damage
[2]; treatment beginning 4 weeks after DMM, examined 8 weeks after surgery, vs vehicle-treated mice at 8 weeks
  articular cartilage damage (OARSI scoring): significantly less damage
[2]; week 8
  articular cartilage damage (SOFG staining, OARSI scoring): sufficient to prevent degradation of AC
[2]; week 8, listed as BMP-KI
  articular cartilage damage (SOFG staining, OARSI scoring): protection of articular cartilage
[3]; [9]
  COL10 levels (percentage of cells expressing): significantly decreased
[3]; [10]
  COL10 levels (percent of cells expressing): significantly decreases levels of expression; also recorded: visibly reduced
[4]; [9]
  MMP13 levels (percentage of cells expressing): attenuated to those of healthy sham control AC
[4]; [10]
  MMP13 levels (percent of cells expressing): significantly decreases levels of expression; also recorded: visibly reduced
[5]; [11]
  percentage of cells positive for pSMAD1/5: reduced
[5]; [12]
  pSMAD1/5 expression in articular cartilage: reduced to normal levels
[6]; [11]
  percent cells positive for pSMAD2/3: not rescued
[6]; [12]
  pSMAD2/3 expression in articular cartilage: not restored to normal levels
[7]; week 6 after surgery, vs DMM control
  pain (Von Frey 50% paw withdrawal threshold): did not exhibit an increase in pain
[7]; week 8
  pain (Von Frey) compared to mice that had received sham surgery: no significant difference
